From EP0304279B1, “Peptide determinant associated with immunity” (THE BOARD OF TRUSTEES OF THE LELAND STANFORD JUNIOR …, priority 1987, dated 1997)

Key:
mouse T-cells = assay: Proliferation assay (3H-thymidine incorporation) of MHC-restricted T-cells with PL/J splenic APC; type: cell-based
Method: (§1) Proliferation Assay: Proliferative responses were determined as described previously (Zamvil et al., Nature (1985) 317:355). 1x10^4 T-cells were cultured with 5x10^5 X-irradiated (3,000 rad) PL/J splenic APC in 0.2 ml of culture media in 96 well flat-bottomed microtiter plates (Falcon, 3072). Peptides were added to culture giving the final concentrations indicated. At 48 hours incubation, each well was pulsed with 1 µCi ^3H-thymidine and harvested 16 hours later. The mean c.p.m. thymidine incorporation was calulated for triplicate cultures. Standard deviations from replicate cultures were within 10% mean value.

[1] = test system: clone F1-28, a MBP-specific T-cell; assay: Stimulation of MBP-specific T-cell clone by synthetic peptide (proliferation assay); type: cell-based; settings: T-cell clone F1-28 recognizing the autoantigen myelin basic protein
Excerpt: The determinant of myelin basic protein (MBP) P5-17 (Zamvil, et al., Nature, supra) contains a pattern P-S-Q-R-H-G-S-K-Y-L-A-T-A. Using the algorithm for the subject motif for predicting T-cell clones the epitope of the clone F1-28, a MBP-specific T-cell was isolated (Zamvil, et al., J. Exp. Med. (1985) 162: 2107), which clone recognizes the autoantigen myelin basic protein. A peptide corresponding to amino acids P35-47 containing two patterns GILD and RFFS was synthesized and shown to be stimulatory.
as §1

[2] = test system: clone F1-28, a MBP-specific T-cell; settings: Zamvil et al., Nature (1986) 324:258; cited from earlier work

## P89-101: P89-101 of the human myelin basic protein comprising the motif HFFK (PHLIRLFSRDAPG; UniProt P02686 89-101, looked up, fragment)
Mouse T-cells; mouse T-cells restricted by I-A(s)α A(s)β
  T-cell stimulation: stimulatory

## G-I-L-D-S-I-G-R-F-F-S-G-D-R-G-A-P (GILDSIGRFFSGDRGAP) [P35-47, peptide of myelin basic protein containing two patterns GILD and RFFS]
Mouse T-cells; mouse T-cells restricted by MHC I-E(u)α E(u)β
  T-cell stimulation: stimulatory
[1]
  T-cell stimulation: stimulatory

## L-D-S-I-G-R-F-F-S-G-D-R-G-A-P (LDSIGRFFSGDRGAP)
[2]
  stimulatory epitope defined with overlapping peptides: stimulatory epitope
